Test results taken from publication PMC2720136 (Bioorganic & medicinal chemistry, 2009).

Tests used:
pig kidney FBPase = molecular target: T1, pig kidney FBPase (Sus scrofa, UniProt P00636); test: Coupled-enzyme FBPase activity assay; type: biochemical
T1 sequence (P00636 1-338): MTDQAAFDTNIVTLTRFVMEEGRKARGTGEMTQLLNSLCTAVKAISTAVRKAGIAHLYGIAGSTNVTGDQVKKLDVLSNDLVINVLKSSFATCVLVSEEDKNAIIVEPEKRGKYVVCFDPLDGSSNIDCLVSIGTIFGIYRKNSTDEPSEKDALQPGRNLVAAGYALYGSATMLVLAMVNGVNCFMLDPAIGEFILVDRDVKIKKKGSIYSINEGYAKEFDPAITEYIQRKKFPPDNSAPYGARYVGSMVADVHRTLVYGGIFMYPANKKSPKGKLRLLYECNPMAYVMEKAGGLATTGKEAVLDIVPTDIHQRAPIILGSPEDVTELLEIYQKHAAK

human liver FBPase = test: Inhibition of human liver FBPase by MB05032; type: biochemical; settings: MB05032 EC50 (human liver FBPase) vs 4c IC50 (pig kidney FBPase)

Q: With `Oc1ccc(Nc2nc(-c3ccc(O)cc3)cs2)cc1` [Compound 3b, 4-(4-(4-Hydroxyphenyl)thiazol-2-ylamino)phenol] as the molecule, how does the “fold improved inhibitory activity of 3b over 3a” value (pig kidney FBPase; ratio of IC50, 3a vs 3b) read?
A: Its value is 3 fold.

Q: With `O=[N+]([O-])c1ccc(-c2csc(Nc3ccc(O)cc3)n2)cc1` [Compound 3d, 4-(4-(4-Nitrophenyl)thiazol-2-ylamino)phenol] as the molecule, how does the “inhibition with nitro at R5 (in words)” value (pig kidney FBPase; pig kidney FBPase) read?
A: Its value is “eliminated”.

Q: For `Oc1ccc(-c2csc(Nc3ccccc3O)n2)cc1` [Compound 5b, 2-(4-(4-Hydroxyphenyl)thiazol-2-ylamino)phenol], which “fold improved inhibition of 5b over 5a” value (pig kidney FBPase; ratio of IC50, 5a vs 5b) is on record?
A: The value was about 18 fold.

Q: How did the “inhibitory activity against the enzyme at 300 μM” value (pig kidney FBPase; pig kidney FBPase, 300 μM inhibitor) turn out when `O=[N+]([O-])c1cccc(Nc2nc(-c3ccccc3)cs2)c1` [Compound 7a, N-(3-Nitrophenyl)-4-phenylthiazol-2-amine] was run?
A: The value was “no significant inhibitory activity”.

Q: How did the “inhibition with nitro at R5 (in words)” value (pig kidney FBPase; pig kidney FBPase) turn out when `O=[N+]([O-])c1ccc(-c2csc(Nc3ccccc3)n2)cc1` [Compound 8e, 4-(4-Nitrophenyl)-N-phenylthiazol-2-amine] was run?
A: Its value is “eliminates inhibition”.

Q: For `CC(C)Cc1sc(N)nc1-c1ccc(P(=O)(O)O)o1` [MB05032], which “fold better than 4c” value (human liver FBPase) is on record?
A: The value was “approximately 370 fold”.
